Test results: ChEMBL document CHEMBL2176963, “Design, synthesis, and biological evaluation of 3-(1H-1,2,3-triazol-1-yl)benzamide derivatives as Potent Pan Bcr-Abl inhibitors including the threonine(315)→isoleucine(315) mutant” (J Med Chem, 2012)

Key:
K562 [1] = assay: Antiproliferative activity against human K562 cells expressing wild type Bcr-Abl after 72 hrs by CCK-8 assay; conditions: K562, 72 h
cells = conditions: Mus musculus, BaF3, 72 h
K562 [2] = assay: Antiproliferative activity against imatinib-resistant human K562 cells expressing Bcr-Abl Q252H mutant after 72 hrs by CCK-8 assay; conditions: K562, 72 h
[3] = Antiproliferative activity against mouse BA/F3 cells expressing wild type Bcr-Abl after 72 hrs by CCK-8 assay; conditions: BaF3, 72 h
[4] = Antiproliferative activity against human KU812 cells expressing wild type Bcr-Abl after 72 hrs by CCK-8 assay; conditions: KU812, 72 h

Compound | IC50 (K562 [1]) | IC50 (cells) | IC50 (K562 [2]) | IC50 [3] | IC50 [4]
Cc1ccc(C(=O)Nc2ccc(CN3CCN(C)CC3)c(C(F)(F)F)c2)cc1-n1cc(-c2cnc3ccccn23)nn1 | 0.63 nM | 178 nM | 1.85 nM | 4.54 nM | 0.16 nM
Cc1ccc(C(=O)Nc2ccc(CN3CCN(C)CC3)c(C(F)(F)F)c2)cc1-n1cc(-c2cnc(NC3CC3)nc2)nn1 | 1.24 nM | 579 nM | 19.2 nM | 3.01 nM | 0.22 nM
CCc1ccc(C(=O)Nc2ccc(CN3CCN(C)CC3)c(C(F)(F)F)c2)cc1-n1cc(-c2cnc3[nH]ncc3c2)nn1 | 0.85 nM | 282 nM | 8.96 nM | 4.04 nM | 0.39 nM
Cc1ccc(C(=O)Nc2ccc(CN3CCN(C)CC3)c(C(F)(F)F)c2)cc1-n1cc(-c2cnc(NC3CCCCC3)nc2)nn1 | 7.04 nM | 3630 nM | 72.8 nM | 28.3 nM | 1.57 nM
Cc1ccc(C(=O)Nc2ccc(CN3CCCN(C)CC3)c(C(F)(F)F)c2)cc1-n1cc(-c2cnc3[nH]ncc3c2)nn1 | 0.8 nM | 294 nM | 8.45 nM | 4.02 nM | 0.38 nM
Cc1ccc(C(=O)Nc2ccc(CN3CCN(C)CC3)c(C(F)(F)F)c2)cc1-n1cc(-c2ccc3[nH]ncc3c2)nn1 | 12.4 nM | 754 nM | 109 nM | 56.2 nM | 12.2 nM
CN1CCN(Cc2ccc(NC(=O)c3ccc(F)c(-n4cc(-c5cnc6[nH]ncc6c5)nn4)c3)cc2C(F)(F)F)CC1 | 0.24 nM | 130 nM | 2.28 nM | 3.9 nM | 0.1 nM
CN1CCN(Cc2ccc(NC(=O)c3cccc(-n4cc(-c5cnc6[nH]ncc6c5)nn4)c3)cc2C(F)(F)F)CC1 | 0.67 nM | 728 nM | 10.8 nM | 3.98 nM | 1.34 nM
Cc1ccc(C(=O)Nc2ccc(CN3CCC(N4CCN(C)CC4)CC3)c(C(F)(F)F)c2)cc1-n1cc(-c2cnc3[nH]ncc3c2)nn1 | 1.25 nM | 873 nM | 4.32 nM | 23.8 nM | 1.48 nM
CN1CCN(Cc2ccc(NC(=O)c3ccc(C4CC4)c(-n4cc(-c5cnc6[nH]ncc6c5)nn4)c3)cc2C(F)(F)F)CC1 | 5.69 nM | 1160 nM | 37.5 nM | 32.9 nM | 4.05 nM
Cc1ccc(C(=O)Nc2cc(-n3cncn3)cc(C(F)(F)F)c2)cc1-n1cc(-c2cnc3[nH]ncc3c2)nn1 | 3.5 nM | 652 nM | 21.9 nM | 4.54 nM | 0.46 nM
Cc1ccc(C(=O)Nc2ccc(CN3C[C@H]4CN(C)C[C@H]4C3)c(C(F)(F)F)c2)cc1-n1cc(-c2cnc3[nH]ncc3c2)nn1 | 0.25 nM | 473 nM | 3.55 nM | 3.66 nM | 0.4 nM
Cc1ncn(-c2cc(NC(=O)c3ccc(C)c(-n4cc(-c5cnc6[nH]ncc6c5)nn4)c3)cc(C(F)(F)F)c2)n1 | 2.9 nM | 620 nM | 34.2 nM | 3.68 nM | 0.4 nM
Cc1cn(-c2cc(NC(=O)c3ccc(C)c(-n4cc(-c5cnc6[nH]ncc6c5)nn4)c3)cc(C(F)(F)F)c2)cn1 | 3.37 nM | 656 nM | 25.7 nM | 4.72 nM | 0.73 nM
CN1CCN(Cc2ccc(NC(=O)c3ccc(Br)c(-n4cc(-c5cnc6[nH]ncc6c5)nn4)c3)cc2C(F)(F)F)CC1 | 0.23 nM | 46.4 nM | 1.49 nM | 3.28 nM | 0.1 nM
Cc1ccc(C(=O)Nc2ccc(CN3CCN(C)CC3)c(C(F)(F)F)c2)cc1-n1cc(-c2cnc(NC(C)C)nc2)nn1 | 7.26 nM | 799 nM | 81.2 nM | 32.8 nM | 1.44 nM
Cc1ccc(C(=O)Nc2ccc(CN3CCN(C)CC3)c(C(F)(F)F)c2)cc1-n1cc(-c2cnc(N)nc2)nn1 | 0.85 nM | 494 nM | 17.1 nM | 3.35 nM | 0.2 nM
Cc1ccc(C(=O)Nc2ccc(CN3CC[C@H](N(C)C)C3)c(C(F)(F)F)c2)cc1-n1cc(-c2cnc3[nH]ncc3c2)nn1 | 0.32 nM | 91.7 nM | 2.24 nM | 3.01 nM | 0.68 nM
